Data taken from patent US9284325B2, “Spectinamides as anti-tuberculosis agents” (UNIVERSITY OF TENNESSEE RESEARCH FOUNDATION, priority 2009, dated 2016).
Structures can show the parent of a compound that is named as a salt.

How the values were obtained:
E. faecalis ATCC 33186 = assay: MIC determination by microbroth dilution; type: cell-based, Enterococcus faecalis; details: Enterococcus faecalis, ATCC33186
[1] = tested on: Strep. pneumoniae DAW27 or strain R6; assay: MIC determination by microbroth dilution; type: cell-based, Streptococcus pneumoniae; details: Streptococcus pneumoniae; Strep. pneumoniae DAW27 or strain R6 (for 1443-1544); read-out: MIC S. pneumoniae
[2] = tested on: Klebsiella pneumoniae ATCC 33495; assay: MIC determination by microbroth dilution; type: cell-based; details: ATCC33495
M. tuberculosis H37Rv = assay: MIC determination by microbroth dilution, anti-tuberculosis activity; type: cell-based, Mycobacterium tuberculosis; details: Mycobacterium tuberculosis, H37RV, 168 h; read-out: MIC
[3] = tested on: Acinetobacter baumannii ATCC 19606; assay: MIC determination by microbroth dilution; type: cell-based; details: ATCC19606
[4] = tested on: Strep. pyogenes ATCC 700294; assay: MIC determination by microbroth dilution; type: cell-based, Streptococcus pyogenes; details: Streptococcus pyogenes, ATCC700294, read-out: MIC S. pyogenes
[5] = tested on: Strenotrophomonas maltophilia ATCC 13637; assay: MIC determination by microbroth dilution; type: cell-based
[6] = tested on: S. aureus 8325 or strain ATCC 29213; assay: MIC determination by microbroth dilution; type: cell-based, Staphylococcus aureus; details: Staphylococcus aureus, ATCC29213; S. aureus 8325 or strain ATCC 29213 (for 1471-1544)
[7] = tested on: Proteus mirabilis ATCC 25933; assay: MIC determination by microbroth dilution; type: cell-based; details: ATCC25933
E. coli K12 = assay: MIC determination by microbroth dilution; type: cell-based, Escherichia coli; details: Escherichia coli, K12
[8] = tested on: Burkholderia cepacia ATCC 25416; assay: MIC determination by microbroth dilution; type: cell-based; details: ATCC25416, read-out: MIC B. cepcia
B. anthracis Sterne 34F2 = assay: microbe, parasite or virus in culture; type: cell-based, Bacillus anthracis; details: Bacillus anthracis, STERNE34F2, read-out: MIC B. anthracis 34F2
P. aeruginosa PAO1 = assay: MIC determination by microbroth dilution; type: cell-based, Pseudomonas aeruginosa; details: Pseudomonas aeruginosa
[9] = tested on: Proteus vulgaris ATCC 33420; assay: MIC determination by microbroth dilution; type: cell-based; details: ATCC33420
E. coli K12 ΔtolC = assay: microbe, parasite or virus in culture; type: cell-based; details: Escherichia coli, read-out: MIC E. coli K12 ΔtolC

| SMILES | MIC (E. faecalis ATCC 33186) | MIC [1] | MIC [2] | MIC (M. tuberculosis H37Rv) | MIC [3] | MIC [4] | MIC [5] | MIC [6] | MIC [7] | MIC (E. coli K12) | MIC [8] | MIC (B. anthracis Sterne 34F2) | MIC (P. aeruginosa PAO1) | MIC [9] | MIC (E. coli K12 ΔtolC) |
| --- | --- | --- | --- | --- | --- | --- | --- | --- | --- | --- | --- | --- | --- | --- | --- |
| CN[C@@H]1[C@H](O)[C@H](NC)C2O[C@]3(O)C(OC2[C@H]1O)O[C@H](C)C[C@H]3NC(=O)Cc1csc(Nc2ccccc2)n1 (stereo partly drawn) [Compound 1520, 3′-Dihydro-3′-deoxy-4(R)-(2-(phenylamino)thiazol-4-yl)acetylamino spectinomycin trihydrobromide] | 100 µg/mL | 3.1 µg/mL | > 200 µg/mL | 6.25 µg/mL | > 200 µg/mL | 3.1 µg/mL | > 200 µg/mL | 100 µg/mL | > 200 µg/mL | > 200 µg/mL | > 200 µg/mL | > 200 µg/mL | > 200 µg/mL | > 200 µg/mL | 25 µg/mL |
| CN[C@@H]1[C@H](O)[C@H](NC)C2O[C@]3(O)C(OC2[C@H]1O)O[C@H](C)C[C@H]3NC(=O)Cc1ccc([N+](=O)[O-])cn1 (stereo partly drawn) [Compound 1490, 3′-Dihydro-3′-deoxy-4(R)-(5-nitropyridin-2-yl)acetylamino spectinomycin trihydrobromide] | 50 µg/mL | 12.5 µg/mL | > 200 µg/mL | 6.25 µg/mL | > 200 µg/mL | 12.5 µg/mL | > 200 µg/mL | 100 µg/mL | > 200 µg/mL | 200 µg/mL | > 200 µg/mL | > 200 µg/mL | > 200 µg/mL | > 200 µg/mL | 12.5 µg/mL |
| CN[C@@H]1[C@H](O)[C@H](NC)C2O[C@]3(O)C(OC2[C@H]1O)O[C@H](C)C[C@H]3NC(=O)[C@H](C)N (stereo partly drawn) [Compound 1467, 3′-Dihydro-3′-deoxy-4(R)-[2(S)-amino]propanoylamino spectinomycin Trihydrochloride] | > 200 µg/mL | 50 µg/mL | > 200 µg/mL | 200 µg/mL | > 200 µg/mL | 50 µg/mL | 100 µg/mL | > 200 µg/mL | 200 µg/mL | 200 µg/mL | > 200 µg/mL | > 200 µg/mL | > 200 µg/mL | > 200 µg/mL | 200 µg/mL |
| CN[C@@H]1[C@H](O)[C@H](NC)C2O[C@]3(O)C(OC2[C@H]1O)O[C@H](C)C[C@H]3NC(=O)c1ccccc1F (stereo partly drawn) [Compound 1492, 3′-Dihydro-3′-deoxy-4(R)-(2-fluorobenzene-1-yl)carboxylicamino spectinomycin dihydrochloride] | > 200 µg/mL | 100 µg/mL | > 200 µg/mL | > 200 µg/mL | > 200 µg/mL | 50 µg/mL | > 200 µg/mL | > 200 µg/mL | > 200 µg/mL | > 200 µg/mL | > 200 µg/mL | > 200 µg/mL | > 200 µg/mL | > 200 µg/mL | 200 µg/mL |
| CN[C@@H]1[C@H](O)[C@H](NC)C2O[C@]3(O)C(OC2[C@H]1O)O[C@H](C)C[C@H]3NC(=O)Cc1ccc(C)cc1 (stereo partly drawn) [Compound 1399, 3′-Dihydro-3′-deoxy-4(R)-p-tolylacetylamino spectinomycin Dihydrochloride] | 200 µg/mL | 25 µg/mL | > 200 µg/mL | 6.1 µg/mL | > 200 µg/mL | 25 µg/mL | > 200 µg/mL | 50 µg/mL | > 200 µg/mL | > 200 µg/mL | > 200 µg/mL | 100 µg/mL | 100 µg/mL | > 200 µg/mL | 100 µg/mL |
| CN[C@@H]1[C@H](O)[C@H](NC)C2O[C@]3(O)C(OC2[C@H]1O)O[C@H](C)C[C@H]3NC(=O)Cc1csc(Nc2cccc(F)c2)n1 (stereo partly drawn) [Compound 1539, 3′-Dihydro-3′-deoxy-4(R)-(2-((3-fluorophenyl)amino)thiazol-4-yl)acetylamino spectinomycin tribromide] | 25 µg/mL | 3.1 µg/mL | > 200 µg/mL | 6.25 µg/mL | > 200 µg/mL | 3.1 µg/mL | > 200 µg/mL | 100 µg/mL | > 200 µg/mL | > 200 µg/mL | > 200 µg/mL | > 200 µg/mL | > 200 µg/mL | > 200 µg/mL | 12.5 µg/mL |
